Measured values as given in PubChem BioAssay AID330 (DTP/NCI, 2004).
“And” between values parts separate entries of the source, which are not always exact repeats. Equal entries are not always repeated. Toxic doses and inconclusive results are not listed.

System: P388 leukemia ip, CD2F1 mice, survival T/C
Assay: NCI In Vivo Anticancer Drug Screen. Data for tumor model P388 Leukemia (intraperitoneal) in CD2F1 (CDF1) mice
Settings: endpoint: median survival time, higher = longer survival
Method in brief: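 Mice carrying the transplanted tumor received test compound or vehicle. Survival was recorded in each group, and the value is the treated-group measurement divided by that of the vehicle-treated control group.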

[1] = dose: 25.0 mg/kg/injection, schedule: Q01DX009 (ip), vehicle: saline with Tween-80
[2] = dose: 50.0 mg/kg/injection, schedule: Q01DX009 (ip), vehicle: saline with Tween-80
[3] = dose: 100.0 mg/kg/injection, schedule: Q01DX009 (ip), vehicle: saline with Tween-80
[4] = dose: 200.0 mg/kg/injection, schedule: Q01DX009 (ip), vehicle: saline with Tween-80
[5] = dose: 50.0 mg/kg/injection, schedule: Q01DX005 (ip), vehicle: saline with Tween-80
[6] = dose: 100.0 mg/kg/injection, schedule: Q01DX005 (ip), vehicle: saline with Tween-80
[7] = dose: 200.0 mg/kg/injection, schedule: Q01DX005 (ip), vehicle: saline with Tween-80
[8] = dose: 12.5 mg/kg/injection, schedule: Q01DX009 (ip), vehicle: Klucel (hydroxypropylcellulose) (HPC)
[9] = dose: 25.0 mg/kg/injection, schedule: Q01DX009 (ip), vehicle: Klucel (hydroxypropylcellulose) (HPC)
[10] = dose: 25.0 mg/kg/injection, schedule: Q01DX005 (ip), vehicle: Klucel (hydroxypropylcellulose) (HPC)
[11] = dose: 50.0 mg/kg/injection, schedule: Q01DX005 (ip), vehicle: Klucel (hydroxypropylcellulose) (HPC)
[12] = dose: 100.0 mg/kg/injection, schedule: Q01DX005 (ip), vehicle: Klucel (hydroxypropylcellulose) (HPC)
[13] = dose: 200.0 mg/kg/injection, schedule: Q01DX005 (ip), vehicle: Klucel (hydroxypropylcellulose) (HPC)
[14] = dose: 6.25 mg/kg/injection, schedule: Q01DX005 (ip), vehicle: Klucel (hydroxypropylcellulose) (HPC)
[15] = dose: 12.5 mg/kg/injection, schedule: Q01DX005 (ip), vehicle: Klucel (hydroxypropylcellulose) (HPC)
[16] = dose: 50.0 mg/kg/injection, schedule: Q01DX009 (ip), vehicle: Klucel (hydroxypropylcellulose) (HPC)
[17] = dose: 100.0 mg/kg/injection, schedule: Q01DX009 (ip), vehicle: Klucel (hydroxypropylcellulose) (HPC)
[18] = dose: 60.0 mg/kg/injection, schedule: Q01DX005 (ip), vehicle: saline with Tween-80
[19] = dose: 120.0 mg/kg/injection, schedule: Q01DX005 (ip), vehicle: saline with Tween-80
[20] = dose: 240.0 mg/kg/injection, schedule: Q01DX005 (ip), vehicle: saline with Tween-80
[21] = dose: 200.0 mg/kg/injection, schedule: Q01DX009 (ip), vehicle: Klucel (hydroxypropylcellulose) (HPC)
[22] = dose: 100.0 mg/kg/injection, schedule: Q04DX002 (ip), vehicle: Klucel (hydroxypropylcellulose) (HPC)
[23] = dose: 200.0 mg/kg/injection, schedule: Q04DX002 (ip), vehicle: Klucel (hydroxypropylcellulose) (HPC)
[24] = dose: 400.0 mg/kg/injection, schedule: Q04DX002 (ip), vehicle: Klucel (hydroxypropylcellulose) (HPC)

CC(=O)c1ccc(N=C2C(=O)Nc3ccccc32)cc1
T/C (dose: 12.5 mg/kg/injection, schedule: Q01DX009 (ip), vehicle: saline with Tween-80): 93 % of control | T/C [1]: 87 % of control | T/C [2]: 89 % of control and 96 % of control | T/C [3]: 105 % of control | T/C [4]: 116 % of control

CCB1OCC(C2OC(O)C3OB(CC)OC32)O1 (configuration not stated)
T/C [5]: 101 % of control and 96 % of control | T/C [6]: 96 % of control | T/C [7]: 103 % of control and 92 % of control

CCCCC[P+](c1ccccc1)(c1ccccc1)c1ccccc1
T/C (dose: 1.56 mg/kg/injection, schedule: Q01DX009 (ip), vehicle: Klucel (hydroxypropylcellulose) (HPC)): 105 % of control | T/C (dose: 3.12 mg/kg/injection, schedule: Q01DX009 (ip), vehicle: Klucel (hydroxypropylcellulose) (HPC)): 111 % of control | T/C (dose: 3.13 mg/kg/injection, schedule: Q01DX009 (ip), vehicle: Klucel (hydroxypropylcellulose) (HPC)): 121 % of control | T/C (dose: 6.25 mg/kg/injection, schedule: Q01DX009 (ip), vehicle: Klucel (hydroxypropylcellulose) (HPC)): 121 % of control | T/C [8]: 93 % of control | T/C [9]: 100 % of control

O=S(=O)(Cc1cccc(C(F)(F)F)c1)c1nc2cccnc2s1
T/C [2]: 103 % of control | T/C [3]: 103 % of control | T/C [4]: 101 % of control

[CH3][Sn]1([Cl])[O]CCNCC[O]1
T/C [10]: 102 % of control and 97 % of control | T/C [11]: 98 % of control and 100 % of control and 92 % of control | T/C [12]: 101 % of control and 109 % of control and 94 % of control | T/C [13]: 102 % of control and 103 % of control

COc1cc(/C=C/c2ccc(OC)c(O)c2)cc(OC)c1
T/C [14]: 108 % of control | T/C [15]: 103 % of control | T/C [10]: 99 % of control | T/C [11]: 119 % of control and 94 % of control | T/C [12]: 98 % of control | T/C [13]: 94 % of control

Cc1ccc2nc3c(nc2c1)n(-c1ccccc1)c(=O)n3-c1cccc(Cl)c1
T/C [5]: 90 % of control | T/C [6]: 100 % of control | T/C [7]: 101 % of control

O=S(=O)(OCC#CCOS(=O)(=O)c1ccc(Cl)c(Cl)c1)c1ccc(Cl)c(Cl)c1
T/C [8]: 95 % of control | T/C [9]: 92 % of control | T/C [16]: 91 % of control | T/C [17]: 92 % of control

COc1ccnc(-c2cc(OC)cc(/C(N)=N/O)n2)c1
T/C [18]: 100 % of control | T/C [19]: 105 % of control | T/C [20]: 100 % of control

CC1C=CCC2C(=O)c3cccc([N+](=O)[O-])c3C(=O)C12 (configuration not stated)
T/C [11]: 100 % of control | T/C [12]: 96 % of control | T/C [13]: 92 % of control

C/C=C/C(=O)OC(C)CCC(CC)CCCC (configuration not stated)
T/C [17]: 100 % of control | T/C [21]: 96 % of control | T/C (dose: 400.0 mg/kg/injection, schedule: Q01DX009 (ip), vehicle: Klucel (hydroxypropylcellulose) (HPC)): 91 % of control

Nc1nc2c(c(=O)[nH]1)NC(CCNc1ccc(C(=O)NC(CCC(=O)O)C(=O)O)cc1)CN2 (configuration not stated)
T/C [1]: 100 % of control | T/C [2]: 104 % of control and 118 % of control | T/C (dose: 100.0 mg/kg/injection, schedule: Q01DX009 (ip), vehicle: saline sonified): 113 % of control | T/C [3]: 122 % of control

CNS(=O)Nc1ccnc(=O)[nH]1 (configuration not stated)
T/C (dose: 50.0 mg/kg/injection, schedule: Q04DX002 (ip), vehicle: Klucel (hydroxypropylcellulose) (HPC)): 99 % of control | T/C [22]: 100 % of control | T/C [23]: 106 % of control | T/C [24]: 100 % of control

CC(C)OC(=O)Cn1c(=O)c2nnnn2c2ccccc21
T/C [22]: 93 % of control | T/C [23]: 98 % of control | T/C [24]: 93 % of control

O=C1OC(=O)C2C3c4ccccc4C(c4ccccc43)C12 (configuration not stated)
T/C [5]: 115 % of control and 117 % of control | T/C [6]: 110 % of control and 121 % of control | T/C [7]: 120 % of control and 122 % of control | T/C (dose: 400.0 mg/kg/injection, schedule: Q01DX005 (ip), vehicle: saline with Tween-80): 121 % of control

N#CC1C(=O)NC(=O)C(C#N)C1c1ccc(Cl)c(Cl)c1 (configuration not stated)
T/C [16]: 99 % of control | T/C [17]: 100 % of control | T/C [21]: 102 % of control

Clc1cccc(Cl)c1C1CSc2ccccc2N=C1c1ccccc1 (configuration not stated)
T/C [16]: 94 % of control | T/C [17]: 100 % of control | T/C [21]: 100 % of control

O=NN1CCCNC1=O
T/C (dose: 12.5 mg/kg/injection, schedule: Q04DX003 (ip), vehicle: saline): 118 % of control | T/C (dose: 20.0 mg/kg/injection, schedule: Q01DX009 (ip), vehicle: saline with Tween-80): 163 % of control | T/C (dose: 37.5 mg/kg/injection, schedule: Q01DX009 (ip), vehicle: saline with Tween-80): 163 % of control | T/C (dose: 40.0 mg/kg/injection, schedule: Q01DX009 (ip), vehicle: saline with Tween-80): 231 % of control | T/C (dose: 50.0 mg/kg/injection, schedule: Q04DX003 (ip), vehicle: saline): 172 % of control | T/C (dose: 66.0 mg/kg/injection, schedule: Q04DX003 (ip), vehicle: saline): 179 % of control | T/C (dose: 75.0 mg/kg/injection, schedule: Q01DX009 (ip), vehicle: saline with Tween-80): 86 % of control | T/C (dose: 100.0 mg/kg/injection, schedule: Q04DX003 (ip), vehicle: saline): 191 % of control and 216 % of control

O=C1C(Cl)=C(Cl)C(Cl)(Cl)C(Cl)=C1Cl
T/C (dose: 25.0 mg/kg/injection, schedule: Q01DX001 (ip), vehicle: Klucel (hydroxypropylcellulose) (HPC)): 99 % of control | T/C (dose: 50.0 mg/kg/injection, schedule: Q01DX001 (ip), vehicle: Klucel (hydroxypropylcellulose) (HPC)): 93 % of control | T/C (dose: 100.0 mg/kg/injection, schedule: Q01DX001 (ip), vehicle: Klucel (hydroxypropylcellulose) (HPC)): 93 % of control

CC(=O)O[C@H]1/C=C(\C)[C@@H](O)C/C=C(\C)CC(OC(=O)c2ccccc2)[C@H]1C(C)C (some centres not stated)
T/C [15]: 98 % of control | T/C [10]: 98 % of control | T/C [11]: 100 % of control | T/C [12]: 95 % of control

COC(=O)c1c(C(=O)OC)c(Nc2ccccc2)c2ccccc2c1O
T/C (dose: 3.12 mg/kg/injection, schedule: Q01DX005 (ip), vehicle: Klucel (hydroxypropylcellulose) (HPC)): 115 % of control | T/C [14]: 107 % of control | T/C [15]: 99 % of control

CCN(CC)C(=O)C(C)C1=C(C)C(N(CC)CC)=NS(=O)(=O)c2ccccc21 (configuration not stated)
T/C [22]: 102 % of control | T/C [23]: 90 % of control | T/C [24]: 109 % of control

C=C(C)CCOS(=O)(=O)c1ccc(C)cc1
T/C [2]: 102 % of control | T/C [3]: 110 % of control | T/C [4]: 90 % of control

CC(C)(C)C(=O)CC(=O)C(F)(F)C(F)(F)C(F)(F)F.CC(C)(C)C(=O)CC(=O)C(F)(F)C(F)(F)C(F)(F)F.CC(C)(C)C(=O)CC(=O)C(F)(F)C(F)(F)C(F)(F)F.[Ho]
T/C [19]: 111 % of control | T/C [20]: 110 % of control

O=C(O)CNC(=O)C(Cc1c[nH]c2ccccc12)NC(=O)OCc1ccccc1 (configuration not stated)
T/C [5]: 95 % of control | T/C [6]: 94 % of control | T/C [7]: 91 % of control

CN(C)c1ccc(CN2CCCN(Cc3ccc(N(C)C)cc3)C2c2ccncc2)cc1
T/C [3]: 100 % of control | T/C [4]: 100 % of control | T/C (dose: 400.0 mg/kg/injection, schedule: Q01DX009 (ip), vehicle: saline with Tween-80): 100 % of control

O=C(Nc1cc(Cl)cc(Cl)c1)N1CCOCC1
T/C [18]: 92 % of control | T/C [19]: 92 % of control | T/C [20]: 92 % of control

O=S=C(c1ccccc1)N1CCc2ccccc21
T/C (dose: 25.0 mg/kg/injection, schedule: Q01DX009 (ip), vehicle: saline): 97 % of control | T/C (dose: 50.0 mg/kg/injection, schedule: Q01DX009 (ip), vehicle: saline): 97 % of control | T/C (dose: 100.0 mg/kg/injection, schedule: Q01DX009 (ip), vehicle: saline): 89 % of control

CCN(CC)CCOC(=O)C(OCCC(C)C)(c1ccccc1)c1ccccc1
T/C [11]: 113 % of control | T/C [12]: 113 % of control

CC1=CC(=O)C(C(C)C)=CC1=O
T/C (dose: 0.75 mg/kg/injection, schedule: Q01DX009 (ip), vehicle: saline with Tween-80): 100 % of control | T/C (dose: 1.5 mg/kg/injection, schedule: Q01DX009 (ip), vehicle: saline with Tween-80): 104 % of control | T/C (dose: 3.0 mg/kg/injection, schedule: Q01DX009 (ip), vehicle: saline with Tween-80): 104 % of control
